The values below come from patent US6730697B2, “Dihydrothiaphenanthrenecarbonylguanidines: composition, process of making, and use as medicament or diagnostic aid” (Aventis Pharma Deutschland GmbH, priority 2002, dated 2004).

By IC50 is commonly meant the concentration that gives 50% inhibition.

Counter-ions that a name gives are not always drawn.

In the experiment the target is T1, human NHE-1 (Homo sapiens, UniProt P19634).
T1 construct: expressed in transfected cells; host or cells: LAP-1 cells (parental line without endogenous NHE activity, from Prof. Pouysségur, Nice), G418-selected transfectants
The experiment in a line: FLIPR assay for NHE-1 inhibition by recovery of pHi in transfected cell lines. The settings on record: transfected LAP-1 cell line expressing human NHE-1, BCECF fluorescence. In kind it is cell-based. How it is done: The NHE-1 inhibition IC50 [nM] was determined as follows: FLIPR Assay for Determining NHE-1 Inhibitors by Measurement of the Recovery in pHi in Transfected Cell Lines Which Express Human NHE-1 The assay is carried out in an FLIPR (fluorometric imaging plate reader) with black-walled 96-well microtiter plates with clear bases. […] [The growth medium for the transfected cells (Iscove +10% fetal calf serum) additionally contains G418 as selection antibiotic in order to ensure the presence of the transfected sequences.] The actual assay starts with the removal of the growth medium and addition of 100 μl of loading buffer per well (5 μM BCECF-AM [2′, 7′-bis(carboxyethyl)-5-(and-6)-carboxyfluorescein, acetoxymethyl ester] in 20 mM NH4Cl, 115 mM choline chloride, 1 mM MgCl2, 1 mM CaCl2, 5 mM KCl, 20 mM HEPES, 5 mM glucose; pH 7.4 [adjusted with KOH]). The cells are then incubated at 37° C. for 20 minutes. This incubation leads to loading of the cells with the fluorescent dye whose fluorescence intensity depends on pHi, and with NH4Cl which makes the cells slightly alkaline. [The nonfluorescent dye precursor BCECF-AM is, as ester, membrane-permeable. The actual dye BCECF is not membrane-permeable but is liberated inside cells by esterases.] After this incubation for 20 minutes, the loading buffer which contains NH4Cl and free BCECF-AM is removed by washing three times in a cell washer (Tecan Columbus) with in each case 400 μl of washing buffer (133.8 mM choline chloride, 4.7 mM KCl, 1.25 mM MgCl2, 1.25 mM CaCl2, 0.97 mM K2HPO4, 0.23 mM KH2PO4, 5 mM HEPES, 5 mM glucose; pH 7.4 [adjusted with KOH]). The residual volume remaining in the wells is 90 μl (50-125 μl possible). This washing step removes the free BCECF-AM and results, as a consequence of the removal of the external NH4^+ ions, in intracellular acidification (˜pHi 6.3-6.4). Since the equilibrium of intracellular NH4^+ with NH3 and H^+ is disturbed by the removal of the extracellular NH4^+ and by the subsequent instantaneous passage of the NH3 through the cell membrane, the washing process results in H^+ remaining inside the cells, which is the cause of the intracellular acidification. This may eventually lead to cell death if it persists long enough. It is important at this point that the washing buffer is sodium-free (<1 mM) because extracellular sodium ions would lead to an instantaneous recovery of the pHi through the activity of the cloned NHE isoforms. It is likewise important for all the buffers used (loading buffer, washing buffer, recovery buffer) not to contain any HCO3^− ions, because the presence of bicarbonate would lead to activation of interfering bicarbonate-dependent pHi regulatory systems present in the parental LAP-1 cell line. The microtiter plates with the acidified cells are then (up to 20 minutes after the acidification) transferred to the FLIPR. In the FLIPR, the intracellular fluorescent dye is excited by light with a wavelength of 488 nm generated by an argon laser, and the measured parameters (laser power, illumination time and aperture of the CCD camera incorporated in the FLIPR) are chosen so that the average fluorescence signal per well is between 30 000 and 35 000 relative fluorescence units. The actual measurement in the FLIPR starts with a photograph being taken by the CCD camera every two seconds under software control. After ten seconds, the recovery of the intracellular pH is initiated by adding 90 μl of recovery buffer (133.8 mM NaCl, 4.7 mM KCl, 1.25 mM MgCl2, 1.25 mM CaCl2, 0.97 mM K2HPO4, 0.23 mM KH2PO4, 10 mM HEPES, 5 mM glucose; pH 7.4 [adjusted with NaOH]) by means of the 96-well pipettor incorporated in the FLIPR. Positive control wells (100% NHE activity) are those to which pure recovery buffer is added, while negative controls (0% NHE activity) receive washing buffer. Recovery buffer with twice the concentration of test substance is added to all the other wells. Measurement in the FLIPR terminates after 60 measurements (two minutes). […]

T1 sequence (P19634 whole entry): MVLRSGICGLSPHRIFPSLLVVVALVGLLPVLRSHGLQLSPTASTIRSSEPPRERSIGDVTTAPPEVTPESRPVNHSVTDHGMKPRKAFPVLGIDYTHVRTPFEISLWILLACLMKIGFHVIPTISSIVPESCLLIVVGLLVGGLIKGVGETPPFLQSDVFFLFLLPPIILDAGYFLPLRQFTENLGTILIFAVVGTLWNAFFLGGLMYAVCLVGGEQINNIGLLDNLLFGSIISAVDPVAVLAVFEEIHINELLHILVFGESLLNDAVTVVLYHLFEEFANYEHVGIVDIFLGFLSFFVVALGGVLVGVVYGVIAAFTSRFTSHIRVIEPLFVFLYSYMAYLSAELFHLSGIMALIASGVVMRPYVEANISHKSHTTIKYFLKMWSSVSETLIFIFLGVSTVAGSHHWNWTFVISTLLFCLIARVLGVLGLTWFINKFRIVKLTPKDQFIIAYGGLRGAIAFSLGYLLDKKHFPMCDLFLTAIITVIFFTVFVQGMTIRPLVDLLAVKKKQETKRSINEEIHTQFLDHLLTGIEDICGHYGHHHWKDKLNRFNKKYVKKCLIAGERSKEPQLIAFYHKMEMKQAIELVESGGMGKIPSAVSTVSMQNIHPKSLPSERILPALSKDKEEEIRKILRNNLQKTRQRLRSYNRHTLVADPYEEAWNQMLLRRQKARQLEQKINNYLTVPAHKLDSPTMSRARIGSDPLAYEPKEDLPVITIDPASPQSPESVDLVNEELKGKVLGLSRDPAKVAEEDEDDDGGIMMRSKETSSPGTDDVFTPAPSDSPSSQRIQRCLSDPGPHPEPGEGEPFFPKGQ

As for `Cc1cc2c(cc1C(=O)NC(=N)N)S(=O)(=O)Cc1ccccc1-2` [Example 1, N-(6-Methyl-9,9-dioxo-9,10-dihydro-9-thiaphenanthrene-7-carbonyl)guanidinium Formate], the IC50 is 0.0156 µM.
The result for `Cc1cc2c(cc1C(=O)NC(=N)N)S(=O)(=O)Cc1ccc3ccccc3c1-2` [Example 2, N-(2-Methyl-5,5-dioxo-5,6-dihydro-5-thiabenzo[c]phenanthrene-3-carbonyl)guanidinium Formate] reads 0.0242 µM; that for `Cc1ccc2c(c1)-c1cc(C)c(C(=O)NC(=N)N)cc1S(=O)(=O)C2` [Example 3, N-(3,6-Dimethyl-9,9-dioxo-9,10-dihydro-9-thiaphenanthrene-7-carbonyl)-guanidinium Formate], 0.0086 µM; that for `Cc1cc2c(cc1C(=O)NC(=N)N)S(=O)(=O)Cc1cc(Cl)ccc1-2` [Example 4, N-(2-Chloro-6-methyl-9,9-dioxo-9,10-dihydro-9-thiaphenanthrene-7-carbonyl)guanidinium Formate], 0.0108 µM.
Turning to `Cc1cc2c(cc1C(=O)NC(=N)N)S(=O)(=O)Cc1ccc(F)cc1-2` [Example 5, N-(3-Fluoro-6-methyl-9,9-dioxo-9,10-dihydro-9-thiaphenanthrene-7-carbonyl)guanidinium Formate], the IC50 was 0.0156 µM.
`Cc1cc2c(cc1C(=O)NC(=N)N)S(=O)(=O)Cc1c(F)cccc1-2` [Example 6, N-(1-Fluoro-6-methyl-9,9-dioxo-9,10-dihydro-9-thiaphenanthrene-7-carbonyl)guanidinium Formate] registered a half-maximal inhibitory concentration (IC50) of 0.0165 µM.
The result for `Cc1cc2c(cc1C(=O)NC(=N)N)S(=O)(=O)Cc1ccc(Cl)cc1-2` [Example 7, N-(3-Chloro-6-methyl-9,9-dioxo-9,10-dihydro-9-thiaphenanthrene-7-carbonyl)guanidinium Formate] reads 0.0117 µM; that for `COc1ccc2c(c1)CS(=O)(=O)c1cc(C(=O)NC(=N)N)c(C)cc1-2` [Example 8, N-(2-Methoxy-6-methyl-9,9-dioxo-9,10-dihydro-9-thiaphenanthrene-7-carbonyl)guanidinium Formate], 0.0102 µM; that for `Cc1cc2c(cc1C(=O)NC(=N)N)S(=O)(=O)Cc1c(Cl)cccc1-2` [Example 9, N-(1-Chloro-6-methyl-9,9-dioxo-9,10-dihydro-9-thiaphenanthrene-7-carbonyl)guanidinium Formate], 0.0139 µM.
Molecule `Cc1cc2c(cc1C(=O)NC(=N)N)S(=O)(=O)Cc1cccc(C)c1-2` [Example 10, N-(4,6-Dimethyl-9,9-dioxo-9,10-dihydro-9-thiaphenanthrene-7-carbonyl)-guanidinium Formate] gave a half-inhibitory concentration (IC50) of 0.0677 µM.
On to `Cc1ccc2c(c1)CS(=O)(=O)c1cc(C(=O)NC(=N)N)c(C)cc1-2` [Example 11, N-(2,6-Dimethyl-9,9-dioxo-9,10-dihydro-9-thiaphenanthrene-7-carbonyl)-guanidinium Formate], for which the midpoint of inhibition, the IC50, lay at 0.0195 µM.
